Converted amounts (≈) assume the structure as drawn. Where two headings read alike, the source gives them in different places.
How the values were obtained:
[1] = High-throughput equilibrium solubility at pH 6.8; assay type: physicochemical; details: pH 6.8, aqueous buffer, thermodynamic from solid; read-out: HT-Eq Sol/pH 6.8
Outline: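 Solubility was measured at pH 6.8 following the cited Zhou et al. (2007) procedure.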

[2] = molecular target: T1, PI3K beta (Homo sapiens, UniProt P42338); assay: PI3K beta kinase assay (Kinase-Glo luminescence); assay type: biochemical
T1 construct: for the full-length p110-b subunit are generated and fused by overlapping PCR; His tag (C); made in house; host or cells: baculovirus BV949; Tn5 (Trichoplusia ni) or TiniPro insect cells
T1 sequence (P42338 with tags, fused parts or gaps limits assumed): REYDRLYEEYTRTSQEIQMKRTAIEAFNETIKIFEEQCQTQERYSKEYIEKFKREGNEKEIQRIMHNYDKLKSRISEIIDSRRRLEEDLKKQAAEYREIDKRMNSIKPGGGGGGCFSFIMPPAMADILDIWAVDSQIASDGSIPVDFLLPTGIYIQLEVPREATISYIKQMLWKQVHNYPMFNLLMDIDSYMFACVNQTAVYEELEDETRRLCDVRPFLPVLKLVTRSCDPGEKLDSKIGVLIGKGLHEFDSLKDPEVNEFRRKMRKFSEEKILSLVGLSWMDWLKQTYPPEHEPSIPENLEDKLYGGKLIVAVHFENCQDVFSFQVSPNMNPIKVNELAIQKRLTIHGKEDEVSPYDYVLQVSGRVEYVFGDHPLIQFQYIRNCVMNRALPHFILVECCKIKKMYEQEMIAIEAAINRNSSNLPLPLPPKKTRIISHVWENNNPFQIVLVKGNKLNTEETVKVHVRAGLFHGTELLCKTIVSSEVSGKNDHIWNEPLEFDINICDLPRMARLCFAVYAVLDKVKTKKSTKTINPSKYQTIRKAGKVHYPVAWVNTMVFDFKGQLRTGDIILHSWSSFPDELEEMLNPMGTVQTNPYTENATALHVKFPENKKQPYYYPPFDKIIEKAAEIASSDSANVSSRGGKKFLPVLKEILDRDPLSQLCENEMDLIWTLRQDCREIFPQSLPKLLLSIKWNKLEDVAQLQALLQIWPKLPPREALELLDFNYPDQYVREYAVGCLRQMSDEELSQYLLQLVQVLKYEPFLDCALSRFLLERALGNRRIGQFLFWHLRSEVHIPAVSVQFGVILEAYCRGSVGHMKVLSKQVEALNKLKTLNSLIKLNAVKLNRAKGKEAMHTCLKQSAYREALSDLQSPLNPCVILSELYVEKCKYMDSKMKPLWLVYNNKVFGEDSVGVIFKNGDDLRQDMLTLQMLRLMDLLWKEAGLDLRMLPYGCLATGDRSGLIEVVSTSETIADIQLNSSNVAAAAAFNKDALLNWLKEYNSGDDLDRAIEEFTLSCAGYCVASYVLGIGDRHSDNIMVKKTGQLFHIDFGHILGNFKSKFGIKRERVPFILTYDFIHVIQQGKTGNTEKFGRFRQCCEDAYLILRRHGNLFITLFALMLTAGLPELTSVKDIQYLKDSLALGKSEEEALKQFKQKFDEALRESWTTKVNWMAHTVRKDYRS
Outline: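 PI3Kβ construct BV949 (p85 iSH2–p110β full-length, C-His), 25 nM, reacted with 1 μM ATP and 10 μg/mL phosphatidylinositol in Tris pH 7.5, MgCl2, NaCl, CHAPS, DTT buffer, 60 min at room temperature. Remaining ATP by Kinase-Glo luminescence; IC50 from 4-parameter logistic fit of 8 concentrations.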

solubility thermodynamic [1] [µg/mL]	IC50 ([2]; read-out: EPK_PI3Kbeta/IC50) [nM]	IC50 ([2]; read-out: PI3Kbeta/IC50) [nM]	Compound
187 (≈ 356 µM)	291		CCOc1cc(-c2ccc3ncc4c(c3c2)n(-c2ccc(N3CCCC3)nc2C)c(=O)n4C)cnc1COC [Example 25.2, 8-(5-Ethoxy-6-methoxymethyl-pyridin-3-yl)-3-methyl-1-(2-methyl-6-pyrrolidin-1-yl-pyridin-3-yl)-1,3-dihydro-imidazo[4,5-c]quinolin-2-one]
13 (≈ 23.6 µM)		36	COc1nc(N2CCNCC2)ccc1-n1c(=O)n(C)c2cnc3ccc(-c4cnc(N)c(C(F)(F)F)c4)cc3c21 [Example 9.2, 8-(6-Amino-5-trifluoromethyl-pyridin-3-yl)-1-(2-methoxy-6-piperazin-1-yl-pyridin-3-yl)-3-methyl-1,3-dihydro-imidazo[4,5-c]quinolin-2-one]
57 (≈ 115 µM)	36		CCNc1cc(-c2ccc3ncc4c(c3c2)n(-c2ccc(N3CCC3)nc2C)c(=O)n4C)cnc1CO [Example 23.8, 1-(6-Azetidin-1-yl-2-methyl-pyridin-3-yl)-8-(5-ethylamino-6-hydroxymethyl-pyridin-3-yl)-3-methyl-1,3-dihydro-imidazo[4,5-c]quinolin-2-one]
4 (≈ 7.64 µM)	< 3		Cc1nc(N(C)CCO)ccc1-n1c(=O)n(C)c2cnc3ccc(-c4cnc(N)c(C(F)(F)F)c4)cc3c21 [Example 26.1, 8-(6-Amino-5-trifluoromethyl-pyridin-3-yl)-1-{6-[(2-hydroxy-ethyl)-methyl-amino]-2-methyl-pyridin-3-yl}-3-methyl-1,3-dihydro-imidazo[4,5-c]quinolin-2-one]
427 (≈ 814 µM)	48		COC1CCN(c2ccc(-n3c(=O)n(C)c4cnc5ccc(-c6cncc(C(C)(C)O)c6)cc5c43)c(C)n2)C1 (stereo not shown) [Example 28.1, 8-[5-(1-Hydroxy-1-methyl-ethyl)-pyridin-3-yl]-1-[6-(3-methoxy-pyrrolidin-1-yl)-2-methyl-pyridin-3-yl]-3-methyl-1,3-dihydro-imidazo[4,5-c]quinolin-2-one]
9 (≈ 19.9 µM)	441		CNc1ccc(-c2ccc3ncc4c(c3c2)n(-c2ccc(N3CCC3)nc2C)c(=O)n4C)cn1 [Example 23.4, 1-(6-Azetidin-1-yl-2-methyl-pyridin-3-yl)-3-methyl-8-(6-methylamino-pyridin-3-yl)-1,3-dihydro-imidazo[4,5-c]quinolin-2-one]
59 (≈ 121 µM)	1010		CNc1ncc(-c2ccc3ncc4c(c3c2)n(-c2ccc(N3CC(F)(F)C3)nc2C)c(=O)n4C)cn1 [Example 24.1, 1-[6-(3,3-Difluoro-azetidin-1-yl)-2-methyl-pyridin-3-yl]-3-methyl-8-(2-methylamino-pyrimidin-5-yl)-1,3-dihydro-imidazo[4,5-c]quinolin-2-one]
3 (≈ 5.9 µM)	9		Cc1nc(C(C)(C)O)ccc1-n1c(=O)n(C)c2cnc3ccc(-c4cnc(N)c(C(F)(F)F)c4)cc3c21 [Example 31.5, 8-(6-Amino-5-trifluoromethyl-pyridin-3-yl)-1-[6-(1-hydroxy-1-methyl-ethyl)-2-methyl-pyridin-3-yl]-3-methyl-1,3-dihydro-imidazo[4,5-c]quinolin-2-one]
69 (≈ 135 µM)	208		CCOc1cc(-c2ccc3ncc4c(c3c2)n(-c2ccc(N3CCC3)nc2C)c(=O)n4C)cnc1COC [Example 23.5, 1-(6-Azetidin-1-yl-2-methyl-pyridin-3-yl)-8-(5-ethoxy-6-methoxymethyl-pyridin-3-yl)-3-methyl-1,3-dihydro-imidazo[4,5-c]quinolin-2-one]
30 (≈ 58.4 µM)	192		COc1ncc(-c2ccc3ncc4c(c3c2)n(-c2ccc(N3CC[C@H](O)C3)nc2C)c(=O)n4C)c(OC)n1 [Example 32.3, 8-(2,4-Dimethoxy-pyrimidin-5-yl)-1-[6-((S)-3-hydroxy-pyrrolidin-1-yl)-2-methyl-pyridin-3-yl]-3-methyl-1,3-dihydro-imidazo[4,5-c]quinolin-2-one]
47 (≈ 100 µM)		7	Cc1nc(F)ccc1-n1c(=O)n(C)c2cnc3ccc(-c4cnc(N)c(C(F)(F)F)c4)cc3c21 [Example 7.1, 8-(6-Amino-5-trifluoromethyl-pyridin-3-yl)-1-(6-fluoro-2-methyl-pyridin-3-yl)-3-methyl-1,3-dihydro-imidazo[4,5-c]quinolin-2-one]
204 (≈ 424 µM)	19		Cc1nc(N2CCC2)ccc1-n1c(=O)n(C)c2cnc3ccc(-c4cncc(C(C)(C)O)c4)cc3c21 [Example 23.3, 1-(6-Azetidin-1-yl-2-methyl-pyridin-3-yl)-8-[5-(1-hydroxy-1-methyl-ethyl)-pyridin-3-yl]-3-methyl-1,3-dihydro-imidazo[4,5-c]quinolin-2-one]

Second part, the molecule before the results:

Compound	solubility thermodynamic [1] [µg/mL]	IC50 ([2]; read-out: EPK_PI3Kbeta/IC50) [nM]	IC50 ([2]; read-out: PI3Kbeta/IC50) [nM]
CCOc1ccc(-c2ccc3ncc4c(c3c2)n(-c2ccc(F)nc2C)c(=O)n4C)cn1 [Example 7.3, 8-(6-Ethoxy-pyridin-3-yl)-1-(6-fluoro-2-methyl-pyridin-3-yl)-3-methyl-1,3-dihydro-imidazo[4,5-c]quinolin-2-one]	2 (≈ 4.66 µM)		452
Cc1ncccc1-n1c(=O)n(C)c2cnc3ccc(-c4cncc(N)c4)cc3c21 [Example 2.25, 8-(5-Amino-pyridin-3-yl)-3-methyl-1-(2-methyl-pyridin-3-yl)-1,3-dihydro-imidazo[4,5-c]quinolin-2-one]	228 (≈ 596 µM)	143	
Cc1ncccc1-n1c(=O)n(C)c2cnc3ccc(-c4cncc(NC(C)C)c4)cc3c21 [Example 2.24, 8-(5-Isopropylamino-pyridin-3-yl)-3-methyl-1-(2-methyl-pyridin-3-yl)-1,3-dihydro-imidazo[4,5-c]quinolin-2-one]	196 (≈ 462 µM)	40	
Cc1nc(C(C)(C)O)ccc1-n1c(=O)n(C)c2cnc3ccc(-c4cncc(C(C)(C)C#N)c4)cc3c21 [Example 31.6, 2-(5-{1-[6-(1-Hydroxy-1-methyl-ethyl)-2-methyl-pyridin-3-yl]-3-methyl-2-oxo-2,3-dihydro-1H-imidazo[4,5-c]quinolin-8-yl}-pyridin-3-yl)-2-methyl-propionitrile]	3 (≈ 6.09 µM)	25	
Cn1c(=O)n(-c2cccnc2)c2c3cc(-c4ccc(CO)nc4)ccc3ncc21 [Example 5.1, 8-(6-Hydroxymethyl-pyridin-3-yl)-3-methyl-1-pyridin-3-yl-1,3-dihydro-imidazo[4,5-c]quinolin-2-one]	15 (≈ 39.1 µM)		801
CCNc1cc(-c2ccc3ncc4c(c3c2)n(-c2cccnc2C)c(=O)n4C)cnc1CO [Example 2.31, 8-(5-Ethylamino-6-hydroxymethyl-pyridin-3-yl)-3-methyl-1-(2-methyl-pyridin-3-yl)-1,3-dihydro-imidazo[4,5-c]quinolin-2-one]	27 (≈ 61.3 µM)	67	
COc1ccc(-c2ccc3ncc4c(c3c2)n(-c2cccnc2C)c(=O)n4C)cn1 [Example 2.12, 8-(6-Methoxy-pyridin-3-yl)-3-methyl-1-(2-methyl-pyridin-3-yl)-1,3-dihydro-imidazo[4,5-c]quinolin-2-one]	27 (≈ 67.9 µM)		132
Cc1ncccc1-n1c(=O)n(C)c2cnc3ccc(-c4cnc(N(C)C)nc4)cc3c21 [Example 2.15, 8-(2-Dimethylamino-pyrimidin-5-yl)-3-methyl-1-(2-methyl-pyridin-3-yl)-1,3-dihydro-imidazo[4,5-c]quinolin-2-one]	11 (≈ 26.7 µM)		360
COc1ncccc1-n1c(=O)n(C)c2cnc3ccc(-c4ccc(C(N)=O)cc4)cc3c21 [Example 1.6, 4-[1-(2-Methoxy-pyridin-3-yl)-3-methyl-2-oxo-2,3-dihydro-1H-imidazo[4,5-c]quinolin-8-yl]-benzamide]	2 (≈ 4.7 µM)		491
CNc1cncc(-c2ccc3ncc4c(c3c2)n(-c2cccnc2C)c(=O)n4C)c1 [Example 2.26, 3-Methyl-8-(5-methylamino-pyridin-3-yl)-1-(2-methyl-pyridin-3-yl)-1,3-dihydro-imidazo[4,5-c]quinolin-2-one]	115 (≈ 290 µM)	31	
COc1cc(-c2ccc3ncc4c(c3c2)n(-c2cccnc2C)c(=O)n4C)cnc1C(OC)OC [Example 2.27, 8-(6-Dimethoxymethyl-5-methoxy-pyridin-3-yl)-3-methyl-1-(2-methyl-pyridin-3-yl)-1,3-dihydro-imidazo[4,5-c]quinolin-2-one]	> 472	1240	

Reference: patent US20100311714A1, “1H-IMIDAZO[4,5-c]QUINOLINONE COMPOUNDS” (priority 2009, published 2010)
